Data: patent US12090143B1, “4-chloro-N′-(2-(5-phenyl-1,3,4-oxadiazol-2-ylthio)acetoxy)benzimidamide as an antimicrobial compound” (KING FAISAL UNIVERSITY, priority 2023, dated 2024)

Experiments:
Type in all cases: cell-based
Staphylococcus aureus = experiment: Agar plate disc-diffusion, antibacterial, Staphylococcus aureus; details: nutrient agar, 37° C., 48 hours, DMSO zone subtracted
Procedure: (§1) The agar plate disc-diffusion method was applied. […] The discs were then placed onto the surface of agar plates (nutrient agar for bacteria and Sabouraud's dextrose agar for fungi) seeded with the test organism. Each plate contained 15 mL of the agar medium, previously seeded with 0.2 mL of the broth culture of each organism pregrown for 18 hours. The plates were incubated at 37° C. for 48 hours, and 72 hours for fungi. The inhibition zones was measured in mm. Discs impregnated with DMSO were used as a control, and its inhibition zone was subtracted from the tested compound actual inhibition zone.

Pseudomonas aeruginosa = experiment: Agar plate disc-diffusion, antibacterial, Pseudomonas aeruginosa; details: nutrient agar, 37° C., 48 hours, DMSO zone subtracted
Procedure: as §1

Aspergillus flavus = experiment: Agar plate disc-diffusion, antifungal, Aspergillus flavus; details: Sabouraud's dextrose agar, 37° C., 72 hours, DMSO zone subtracted
Procedure: as §1

Bacillus cereus = experiment: Agar plate disc-diffusion, antibacterial, Bacillus cereus; details: nutrient agar, 37° C., 48 hours, DMSO zone subtracted
Procedure: as §1

Escherichia coli = experiment: Agar plate disc-diffusion, antibacterial, Escherichia coli; details: nutrient agar, 37° C., 48 hours, DMSO zone subtracted
Procedure: as §1

[1] = tested on: Chrysosporium keratinophilum; experiment: Agar plate disc-diffusion, antifungal, Chrysosporium keratinophilum; details: Sabouraud's dextrose agar, 37° C., 72 hours, DMSO zone subtracted
Procedure: as §1

[2] = A = concentration of comp. = 10,000 μL
[3] = B = concentration of comp. = 30,000 μL
[4] = C = concentration of comp. = 50,000 μL

For N/C(=N\OC(=O)CSc1nnc(-c2ccccc2)o1)c1ccc(Cl)cc1 [Compound 3, 4-chloro-N′-(2-(5-phenyl-1,3,4-oxadiazol-2-ylthio)acetoxy)benzimidamide], the “inhibition zone, Staphylococcus aureus, A” value (Staphylococcus aureus; [2]) was 25 mm, the “inhibition zone, Staphylococcus aureus, B” value (Staphylococcus aureus; [3]) was 27 mm and the “inhibition zone, Staphylococcus aureus, C” value (Staphylococcus aureus; [4]) was 39 mm. For the same compound, the “inhibition zone, Pseudomonas aeruginosa, A” value (Pseudomonas aeruginosa; A =) was 20 mm, the “inhibition zone, Pseudomonas aeruginosa, B” value (Pseudomonas aeruginosa; [3]) was 26 mm and the “inhibition zone, Pseudomonas aeruginosa, C” value (Pseudomonas aeruginosa; [4]) was 40 mm. For the same compound, the “inhibition zone, Aspergillus flavus, A” value (Aspergillus flavus; [2]) was 23 mm, the “inhibition zone, Aspergillus flavus, B” value (Aspergillus flavus; [3]) was 27 mm and the “inhibition zone, Aspergillus flavus, C” value (Aspergillus flavus; [4]) was 39 mm. For the same compound, the “inhibition zone, Bacillus Cereus, A” value (Bacillus cereus; [2]) was 26 mm, the “inhibition zone, Bacillus Cereus, B” value (Bacillus cereus; [3]) was 29 mm and the “inhibition zone, Bacillus Cereus, C” value (Bacillus cereus; [4]) was 39 mm. The “inhibition zone, Escherichia coli, A” value (Escherichia coli; A =) was 28 mm, the “inhibition zone, Escherichia coli, B” value (Escherichia coli; [3]) was 36 mm and the “inhibition zone, Escherichia coli, C” value (Escherichia coli; [4]) was 53 mm. The “inhibition zone, Chrysosporium keratinophilum, A” value [1, 2] was 35 mm, the “inhibition zone, Chrysosporium keratinophilum, B” value [1, 3] was 26 mm and the “inhibition zone, Chrysosporium keratinophilum, C” value [1, 4] was 42 mm.
